“And” between values parts separate entries of the source, which are not always exact repeats. Identical values can stand only once.
Assay: molar heat capacity at constant pressure
Details: 101.33 kPa, Crystal 2, Small (less than 1 g) adiabatic calorimetry

O=S(=O)([O-])[O-].[Sr+2] [sulfuric acid, strontium salt (1:1)]
Details	molar heat capacity at constant pressure
5 K	0.03816 J/K/mol
5.083 K	0.04505 J/K/mol
5.422 K	0.04233 J/K/mol
5.622 K	0.05543 J/K/mol
5.831 K	0.05464 J/K/mol
6.044 K	0.06693 J/K/mol
6.285 K	0.07062 J/K/mol
6.354 K	0.08024 J/K/mol
6.677 K	0.09728 J/K/mol
6.759 K	0.1018 J/K/mol
7.066 K	0.1205 J/K/mol
7.169 K	0.1252 J/K/mol
7.482 K	0.1475 J/K/mol
7.591 K	0.1545 J/K/mol
7.904 K	0.1777 J/K/mol
8.021 K	0.1873 J/K/mol
8.33 K	0.2151 J/K/mol
8.448 K	0.2273 J/K/mol
8.763 K	0.2543 J/K/mol
8.881 K	0.2707 J/K/mol
9.197 K	0.3046 J/K/mol
9.317 K	0.3217 J/K/mol
9.635 K	0.3631 J/K/mol
9.755 K	0.3798 J/K/mol
10 K	0.4163 J/K/mol
10.08 K	0.427 J/K/mol
10.2 K	0.4451 J/K/mol
10.75 K	0.543 J/K/mol
10.86 K	0.5647 J/K/mol
11.64 K	0.7154 J/K/mol
11.75 K	0.7406 J/K/mol
12.54 K	0.9194 J/K/mol
12.65 K	0.9503 J/K/mol
13.45 K	1.16 J/K/mol
13.55 K	1.197 J/K/mol
14.36 K	1.446 J/K/mol
14.47 K	1.484 J/K/mol
15 K	1.665 J/K/mol
15.29 K	1.771 J/K/mol
15.39 K	1.813 J/K/mol
16.22 K	2.105 J/K/mol
16.32 K	2.148 J/K/mol
17.16 K	2.488 J/K/mol
17.26 K	2.531 J/K/mol
18.1 K	2.928 J/K/mol
18.2 K	2.96 J/K/mol
19.05 K	3.383 J/K/mol
19.14 K	3.432 J/K/mol
20 K	3.864 J/K/mol
20.01 K	3.84 J/K/mol
20.1 K	3.907 J/K/mol
21.44 K	4.638 J/K/mol
21.53 K	4.687 J/K/mol
23.36 K	5.734 J/K/mol
23.44 K	5.783 J/K/mol
25 K	6.782 J/K/mol
25.3 K	6.945 J/K/mol
25.37 K	6.99 J/K/mol
27.25 K	8.25 J/K/mol
27.32 K	8.313 J/K/mol
29.2 K	9.624 J/K/mol
30 K	10.21 J/K/mol
30.75 K	10.74 J/K/mol
31.17 K	11.03 J/K/mol
32.62 K	12.1 J/K/mol
33.14 K	12.44 J/K/mol
34.6 K	13.58 J/K/mol
34.76 K	13.71 J/K/mol
35 K	13.95 J/K/mol
35.1 K	13.99 J/K/mol
36.58 K	15.12 J/K/mol
36.73 K	15.23 J/K/mol
37.07 K	15.51 J/K/mol
38.55 K	16.71 J/K/mol
38.7 K	16.81 J/K/mol
40 K	17.87 J/K/mol
40.53 K	18.29 J/K/mol
40.68 K	18.39 J/K/mol
42.52 K	19.85 J/K/mol
42.65 K	19.96 J/K/mol
44.51 K	21.4 J/K/mol
44.63 K	21.49 J/K/mol
45 K	21.83 J/K/mol
46.49 K	22.95 J/K/mol
46.61 K	23 J/K/mol
48.48 K	24.46 J/K/mol
48.59 K	24.49 J/K/mol
50 K	25.73 J/K/mol
50.48 K	26 J/K/mol
50.57 K	26.02 J/K/mol
52.46 K	27.61 J/K/mol
52.55 K	27.61 J/K/mol
54.45 K	29.14 J/K/mol
54.52 K	29.14 J/K/mol
55 K	29.5 J/K/mol
56.45 K	30.48 J/K/mol
56.51 K	30.49 J/K/mol
58.44 K	31.73 J/K/mol
58.49 K	31.79 J/K/mol
60 K	33.05 J/K/mol
60.44 K	33.28 J/K/mol
60.48 K	33.28 J/K/mol
62.43 K	34.65 J/K/mol
62.46 K	34.66 J/K/mol
64.42 K	35.97 J/K/mol
64.44 K	35.9 J/K/mol
65 K	36.36 J/K/mol
66.35 K	37.12 J/K/mol and 37.15 J/K/mol
68.19 K	38.26 J/K/mol
68.21 K	38.27 J/K/mol
69.98 K	39.31 J/K/mol
70 K	39.32 J/K/mol and 39.45 J/K/mol
72.35 K	40.74 J/K/mol
72.39 K	40.75 J/K/mol
75 K	42.32 J/K/mol
75.34 K	42.37 J/K/mol
75.41 K	42.41 J/K/mol
78.33 K	43.98 J/K/mol
78.44 K	44.04 J/K/mol
79.87 K	44.73 J/K/mol
80 K	44.96 J/K/mol
81.29 K	45.47 J/K/mol
81.33 K	45.52 J/K/mol
81.48 K	45.58 J/K/mol
83.56 K	46.57 J/K/mol
84.99 K	47.25 J/K/mol
85 K	47.4 J/K/mol
85.53 K	47.51 J/K/mol
85.54 K	47.52 J/K/mol
86.61 K	48.03 J/K/mol
88.05 K	48.76 J/K/mol
89.26 K	49.19 J/K/mol
89.28 K	49.23 J/K/mol
89.67 K	49.42 J/K/mol
90 K	49.69 J/K/mol
92.33 K	50.55 J/K/mol
92.35 K	50.59 J/K/mol
92.74 K	50.75 J/K/mol
95 K	51.83 J/K/mol
95.41 K	51.85 J/K/mol
95.43 K	51.89 J/K/mol
95.81 K	52.06 J/K/mol
98.5 K	53.08 J/K/mol
98.51 K	53.12 J/K/mol
98.89 K	53.27 J/K/mol
100 K	53.84 J/K/mol
101.59 K	54.27 J/K/mol
101.61 K	54.31 J/K/mol
101.98 K	54.46 J/K/mol
104.69 K	55.44 J/K/mol
104.71 K	55.47 J/K/mol
105.08 K	55.61 J/K/mol
107.8 K	56.58 J/K/mol
107.82 K	56.6 J/K/mol
108.19 K	56.76 J/K/mol
110 K	57.52 J/K/mol
110.92 K	57.67 J/K/mol
110.94 K	57.74 J/K/mol
111.31 K	57.81 J/K/mol
114.04 K	58.72 J/K/mol
114.06 K	58.77 J/K/mol
114.43 K	58.88 J/K/mol
117.18 K	59.76 J/K/mol
117.2 K	59.81 J/K/mol
117.56 K	59.97 J/K/mol
120 K	60.88 J/K/mol
120.32 K	60.79 J/K/mol
120.33 K	60.87 J/K/mol
120.71 K	60.96 J/K/mol
123.46 K	61.8 J/K/mol
123.49 K	61.84 J/K/mol
123.85 K	61.96 J/K/mol
126.62 K	62.8 J/K/mol
126.64 K	62.83 J/K/mol
127.01 K	62.93 J/K/mol
129.77 K	63.78 J/K/mol
129.8 K	63.86 J/K/mol
130 K	64.04 J/K/mol
130.19 K	63.91 J/K/mol
132.94 K	64.72 J/K/mol
132.97 K	64.77 J/K/mol
133.35 K	64.93 J/K/mol
136.13 K	65.69 J/K/mol
136.16 K	65.79 J/K/mol
136.53 K	65.82 J/K/mol
139.32 K	66.68 J/K/mol
139.35 K	66.65 J/K/mol
139.72 K	66.8 J/K/mol
140 K	67.03 J/K/mol
142.51 K	67.53 J/K/mol
142.54 K	67.62 J/K/mol
142.91 K	67.65 J/K/mol

Reference: the NIST ThermoML archive (doi:10.1016/j.tca.2013.05.017)
